Converted amounts (≈) assume the structure as drawn. Read-outs that look alike come from different tables or passages of the source.
Tests used:
[1] = human, 15 min, 5 μM
[2] = Kinetic solubility in aqueous media (C.3.a); format: physicochemical; details: kinetic from dmso stock, aqueous buffer pH 7.4
Description: (§1) The solubility of a compound measures the ability of a compound to stay in solution. In the first method, the ability of a compound to stay in aqueous solution upon dilution (see example C.3.a) is measured. DMSO-stock solutions are diluted with a single aqueous buffer solvent in different consecutive steps. Mixtures are then scanned in the BD Gentest Solubility Scanner for the occurrence of precipitation. In the second method the solubility of a compound at different pH's can be measured with the use of a chemiluminescent nitrogen detector (see example C.3.b).
DMSO-stock solutions from 5000-9.8 μM (½ dilutions) are made in DMSO in a 96 well stock solution plate (200 μl per well). After each dilution the samples are mixed. Aliquots of these DMSO solutions (2 μl) are then transferred into 2 other 96 well buffer plates, containing 200 μl per well aqueous buffer. Each of the buffer plates contains either aqueous buffer pH 7.4 or aqueous buffer pH 4.0. After the last dilution the buffer plates are mixed and the samples are stabilized at room temperature for ½ hour. Dilution is done in duplicate for each compound to exclude occasional errors. Mixtures are then scanned in the BD Gentest Solubility Scanner for the occurrence of precipitation. Based on the absence/presence of precipitate in the mixtures the kinetic solubility is calculated by interpolation. Ranking is performed into the 3 classes.

[3] = tested on: human A2780 ovarian carcinoma cells; assay: Antiproliferative activity on A2780 cells (MTT); format: cell-based; details: 96 h, four days of incubation, read-out: Cellular activity pIC50 C.2. (converted)
Description: Cellular activity of the compounds of formula (I) was determined on A2780 tumour cells using a […] assay for cell toxicity or survival (Mosmann Tim, Journal of Immunological Methods 65: 55-63, 1983)(see example C.2).
All compounds tested were dissolved in DMSO and further dilutions were made in culture medium. Final DMSO concentrations never exceeded 0.1% (v/v) in cell proliferation assays. Controls contained A2780 cells and DMSO without compound and blanks contained DMSO but no cells. MTT was dissolved at 5 mg/ml in PBS. A glycine buffer comprised of 0.1 M glycine and 0.1 M NaCl buffered to pH 10.5 with NaOH (1 N) was prepared (all reagents were from Merck).
The human A2780 ovarian carcinoma cells (a kind gift from Dr. T. C. Hamilton [Fox Chase Cancer Centre, Pa., USA]) were cultured in RPMI 1640 medium supplemented with 2 mM L-glutamine, 50 μg/ml gentamicin and 10% fetal calf serum. Cells were routinely kept as monolayer cultures at 37° C. in a humidified 5% CO2 atmosphere. Cells were passaged once a week using a trypsin/EDTA solution at a split ratio of 1:40. All media and supplements were obtained from Life Technologies. Cells were free of mycoplasma contamination as determined using the Gen-Probe Mycoplasma Tissue Culture kit (supplier: BioMérieux).
Cells were seeded in NUNC™ 96-well culture plates (Supplier: Life Technologies) and allowed to adhere to the plastic overnight. Densities used for plating were 1500 cells per well in a total volume of 200 μl medium. After cell adhesion to the plates, medium was changed and drugs and/or solvents were added to a final volume of 200 μl. Following four days of incubation, medium was replaced by 200 μl fresh medium and cell density and viability was assessed using an MTT-based assay. […] For each sample, the mean value for cell growth (in absorbance units) was expressed as a percentage of the mean value for cell growth of the control. […] Herein the effects of test compounds are expressed as pIC50 (the negative log value of the IC50-value)(see Table F-2).

[4] = target: histone deacetylase (HeLa nuclear extracts); assay: In vitro assay for inhibition of histone deacetylase (Fluor de Lys, HeLa nuclear extracts); format: biochemical; details: HeLa nuclear extracts 60 μg/ml, 75 μM Fluor de Lys substrate
Description: The in vitro assay for inhibition of histone deacetylase (see example C.1) measures the inhibition of HDAC enzymatic activity obtained with the compounds of formula (I).
The HDAC Fluorescent Activity Assay/Drug Discovery Kit of Biomol (cat. No: AK-500-0001) was used. The HDAC Fluorescent Activity Assay is based on the Fluor de Lys (Fluorogenic Histone deAcetylase Lysyl) substrate and developer combination. The Fluor de Lys substrate, comprises an acetylated lysine side chain. Deacetylation of the substrate sensitizes the substrate so that, in the second step, treatment with the Fluor de Lys developer produces a fluorophore.
HeLa nuclear extracts (supplier: Biomol) were incubated at 60 μg/ml with 75 μM of substrate. The Fluor de Lys substrate was added in a buffer containing 25 mM Tris, 137 mM NaCl, 2.7 mM KCl and 1 mM MgCl2.6H2O at pH 7.4. After 30 min, 1 volume of the developer was added. The fluorophore was excited with 355 nm light and the emitted light (450 nm) was be detected on a fluorometric plate reader. For each experiment, controls (containing HeLa nuclear extract and buffer), a blank incubation (containing buffer but no HeLa nuclear extract) and samples (containing compound dissolved in DMSO and further diluted in buffer and HeLa nuclear extract) were run in parallel. In first instance, compounds were tested at a concentration of 10^−5M. […] All sample were tested 4 times. In each test the blank value was subtracted from both the control and the sample values. The control sample represented 100% of substrate deacylation. For each sample the fluorescence was expressed as a percentage of the mean value of the controls. […] Herein the effects of test compounds are expressed as pIC50 (the negative log value of the IC50-value) (see Table F-2).

[5] = Solubility with chemiluminescent nitrogen detector (C.3.b); format: physicochemical; details: pH 2.3, aqueous buffer
Description: as §1
The solubility of a compound, at different pH's, can also be measured with the use of a chemiluminescent nitrogen detector (see Table F-2).

[6] = tested on: p21 promoter reporter A2780 clone tumour in nude mice; assay: p21 induction capacity, in vivo method (tumour fluorescence); details: s.c. A2780 reporter clone, 20-40 mpk orally or intravenously daily during 6 days
Description: The last method is an in vivo method wherein mice are used for screening the pharmaceutical activity of a compound. The above described stably transformed tumour cells can be administered to mice in an amount sufficient to effect production of a tumour. After the tumour cells had sufficient time to form a tumour, a potentially active compound can be administered to the animals and the effect of said compound on the tumour cells is evaluated by measuring the expression of the reporter gene. Incubation with pharmaceutical active compounds will result in an increase of reporter gene expression compared to the control levels (see example C.6.b.)
A selected clone was injected subcutaneous (10^7 cells/200 μl) into the flank of nude mice and a calliper measurable tumour was obtained after 12 days. From day 12 on, animals were dosed, orally or intraveinally, daily during 6 days with solvent and 20-40 mpk compound (4-10 animals each). Tumours were evaluated for fluorescence by the in-house developed Automated Whole Body Imaging System (Fluorescent stereomicroscope type Olympus® SZX12 equipped with a GFP filter and coupled to a CCD camera type JAI® CV-M90 controlled by a software package based on the IMAQ Vision Software from National Instruments®).

[7] = Metabolic stability in liver microsomes; details: reference compounds; 15 min incubation with microsomes, 5 μM

| SMILES | solubility at 0.5 h [2] [µM] | melting point [°C] | IC50 [3] [nM] | Enzymatic activity pIC50 C.1. [4] | further results |
| --- | --- | --- | --- | --- | --- |
| COc1cc(N)c(Cl)cc1C(=O)NC1CCN(CCCOc2ccc(F)cc2)CC1OC (stereo not drawn) [Cisapride] |  |  |  |  | % metabolism [1]: 45% |
| CC(NCC1CCN(c2ncc(C(=O)NO)cn2)CC1)c1cn(C)c2ccccc12 (stereo not drawn) [Compound 1] | 7.8 (≈ 3.19 µg/mL) | 296 | 31.6 | 9.0 |  |
| Cn1cc(C2CCCN(CC3CCN(c4ncc(C(=O)NO)cn4)CC3)C2)c2ccccc21 (stereo not drawn) [Compound 3] | 15.6 (≈ 7 µg/mL) | 224 | 31.6 | 8.3 |  |
| Cn1cc(C2CCN(CC3CCN(c4ccc(C(=O)Nc5ccccc5N)cn4)CC3)C2)c2ccccc21 (stereo not drawn) [Compound 5] |  | 90 |  |  |  |
| Cn1cc(C2CCN(CC3CCN(c4ncc(C(=O)NO)cn4)CC3)C2)c2ccccc21 (stereo not drawn) [Compound 2] | 9.4 (≈ 4.08 µg/mL) | 231 | 50.1 | 8.9 | solubility [5]: 1350 µg/mL (≈ 3.11 mM); Tumour fluorescence (reporter gene expression) versus control [6]: increased fluorescence as compared to control |
| CCCO [propanol] |  |  |  |  | % metabolism [7]: 25% |
| Cn1cc(C2CCN(CC3CCN(c4ccc(C(=O)NO)cn4)CC3)C2)c2ccccc21 (stereo not drawn) [Compound 4] |  | 70 |  |  |  |

From US7834025B2, “Substituted indolyl-alkyl-amino-derivatives as inhibitors of histone deacetylase” (Janssen Pharmaceutica N.V., priority 2006, dated 2010)
